Calls of active or inactive are those of the source. The calls are words filed in the database; no cut-off is given here.
Columns and labels:
T47D [1] = assay: Induction of apoptosis in human T47D cells assessed as caspase activation after 48 hrs by HTS assay; type: functional, cell-based
HCT-116 [2] = assay: Induction of apoptosis in human HCT116 cells assessed as caspase activation after 48 hrs by HTS assay; type: functional, cell-based; conditions: HCT-116, 48 h
SNU-398 [3] = assay: Induction of apoptosis in human SNU398 cells assessed as caspase activation after 48 hrs by HTS assay; type: functional, cell-based; conditions: SNU-398, 48 h
HCT-116 [4] = assay: Growth inhibition of human HCT116 cells after 48 hrs; type: functional; conditions: HCT-116, 48 h
SNU-398 [5] = assay: Growth inhibition of human SNU398 cells after 48 hrs; type: functional; conditions: SNU-398, 48 h
T47D [6] = assay: Growth inhibition of human T47D cells after 48 hrs; type: functional
T47D [7] = assay: Induction of apoptosis in human T47D cells assessed as accumulation at G2M phase at 2 uM after 48 hrs by propidium iodide-based flow cytometry; type: functional
[8] = Inhibition of tubulin polymerization at 0.5 uM
T47D [9] = assay: Induction of apoptosis in human T47D cells assessed as accumulation at G1 phase at 2 uM after 48 hrs by propidium iodide-based flow cytometry; type: functional
SNU-398 [10] = assay: Ratio of drug to paclitaxel for induction of apoptosis in human SNU398 cells assessed as caspase activation after 48 hrs by HTS assay; type: functional
T47D [11] = assay: Ratio of drug to vinblastin for induction of apoptosis in human T47D cells assessed as caspase activation after 48 hrs by HTS assay; type: functional
T47D [12] = assay: Induction of apoptosis in human T47D cells assessed as accumulation at sub G1 phase at 2 uM after 48 hrs by propidium iodide-based flow cytometry; type: functional
T47D [13] = assay: Induction of apoptosis in human T47D cells assessed as accumulation at sub G1 phase at 2 uM after 24 hrs by propidium iodide-based flow cytometry; type: functional
[14] = Inhibition of tubulin polymerization at 2 uM
T47D [15] = assay: Induction of apoptosis in human T47D cells assessed as accumulation at G2M phase at 2 uM after 24 hrs by propidium iodide-based flow cytometry; type: functional
T47D [16] = assay: Induction of apoptosis in human T47D cells assessed as accumulation at S phase at 2 uM after 24 hrs by propidium iodide-based flow cytometry; type: functional
T47D [17] = assay: Ratio of drug to paclitaxel for induction of apoptosis in human T47D cells assessed as caspase activation after 48 hrs by HTS assay; type: functional
[18] = Inhibition of tubulin polymerization at 3 uM
SNU-398 [19] = assay: Ratio of drug to vinblastin for induction of apoptosis in human SNU398 cells assessed as caspase activation after 48 hrs by HTS assay; type: functional
T47D [20] = assay: Induction of apoptosis in human T47D cells assessed as accumulation at G1 phase at 2 uM after 24 hrs by propidium iodide-based flow cytometry; type: functional
T47D [21] = assay: Induction of apoptosis in human T47D cells assessed as accumulation at S phase at 2 uM after 48 hrs by propidium iodide-based flow cytometry; type: functional
HCT-116 [22] = assay: Ratio of drug to paclitaxel for induction of apoptosis in human HCT116 cells assessed as caspase activation after 48 hrs by HTS assay; type: functional
HCT-116 [23] = assay: Ratio of drug to vinblastin for induction of apoptosis in human HCT116 cells assessed as caspase activation after 48 hrs by HTS assay; type: functional

Row | SMILES | EC50 (T47D [1]) | EC50 (HCT-116 [2]) | EC50 (SNU-398 [3]) | further results
1 | O=C(Nc1ccccc1-n1cccn1)c1cccc2c3ccccc3[s+]([O-])c12 (configuration not stated) | > 10000 nM | > 10000 nM | > 10000 nM | 
2 | O=C(Nc1ccccc1-n1cccn1)c1cccc2c1Cc1ccccc1-2 | 3200 nM | 6200 nM | 6900 nM | 
3 | O=C(Nc1ccccc1-n1cccn1)c1cccc2c1C(=O)c1ccccc1-2 |  |  |  | GI50 (HCT-116 [4]): 1100 nM; GI50 (SNU-398 [5]): 780 nM; GI50 (T47D [6]): 160 nM
4 | O=C(Nc1ccccc1-n1cccn1)c1cccc2c1S(=O)(=O)c1ccccc1-2 | > 10000 nM | > 10000 nM | 480 nM | 
5 | O=C(Nc1ccccc1-n1cccn1)c1cccc2c1OCC2 | > 10000 nM | > 10000 nM | > 10000 nM | 
6 | O=C(Nc1ccccc1-n1cccn1)c1cccc2c1oc1ccccc12 | > 10000 nM | > 10000 nM | > 10000 nM | 
7 | Cc1ccccc1NC(=O)c1cccc2c1Cc1ccccc1-2 | 1700 nM | > 10000 nM | > 10000 nM | 
8 | O=C(Nc1ccccc1-n1cccn1)c1cccc2c1sc1ccccc12 | 2100 nM | 2200 nM | 1500 nM | 
9 | Cc1ccc(NC(=O)c2cccc3c2Cc2ccccc2-3)c(C)c1 | > 10000 nM | > 10000 nM | > 10000 nM | 
10 | O=C(Nc1ccccc1-n1cccn1)c1cccc2c1[nH]c1ccccc12 | > 10000 nM | > 10000 nM | > 10000 nM | 
11 | CC(=O)O[C@H]1C(=O)[C@@]2(C)[C@H]([C@H](OC(=O)c3ccccc3)[C@]3(O)C[C@H](OC(=O)[C@H](O)[C@@H](NC(=O)c4ccccc4)c4ccccc4)C(C)=C1C3(C)C)[C@]1(OC(C)=O)CO[C@@H]1C[C@@H]2O [PACLITAXEL] |  |  |  | GI50 (HCT-116 [4]): 60 nM; GI50 (SNU-398 [5]): 61 nM; GI50 (T47D [6]): 26 nM
12 | Cc1cccc(NC(=O)c2cccc3c2Cc2ccccc2-3)c1C | > 10000 nM | > 10000 nM | > 10000 nM | 
13 | CC[C@]1(O)C[C@@H]2CN(CCc3c([nH]c4ccccc34)[C@@](C(=O)OC)(c3cc4c(cc3OC)N(C)[C@H]3[C@@](O)(C(=O)OC)[C@H](OC(C)=O)[C@]5(CC)C=CCN6CC[C@]43[C@@H]65)C2)C1 [VINBLASTINE] |  |  |  | GI50 (HCT-116 [4]): 10 nM; GI50 (SNU-398 [5]): 5 nM; GI50 (T47D [6]): 7 nM

The next lines start with results.

Row | EC50 (T47D [1]) | EC50 (HCT-116 [2]) | EC50 (SNU-398 [3]) | SMILES | further results
14 | > 10000 nM | > 10000 nM | > 10000 nM | O=C(Nc1ccccc1-n1cccn1)c1ccccc1C(=O)c1ccccc1 | 
15 | 1300 nM | 1500 nM | 1400 nM | O=C(Nc1ccccc1-n1cc(Br)cn1)c1cccc2c1C(=O)c1cc([N+](=O)[O-])ccc1-2 | 
16 | 970 nM | 370 nM | 150 nM | Nc1ccc2c(c1)C(=O)c1c(C(=O)Nc3ccccc3-n3cccn3)cccc1-2 | Activity (T47D [7]): 24%; GI50 (HCT-116 [4]): 510 nM; inhibition [8]: Active; Activity (T47D [9]): 10%; Ratio (SNU-398 [10]): <10; Ratio (T47D [11]): <10; Activity (T47D [12]): 50%; Activity (T47D [13]): 12%; inhibition [14]: 50%; Activity (T47D [15]): 60%; Activity (T47D [16]): 14%; Ratio (T47D [17]): <10; inhibition [18]: 50%; GI50 (SNU-398 [5]): 84 nM; GI50 (T47D [6]): 150 nM; Ratio (SNU-398 [19]): <10; Activity (T47D [20]): 11%; Activity (T47D [21]): 10%; Ratio (HCT-116 [22]): <10; Ratio (HCT-116 [23]): <10
17 | 2400 nM | > 10000 nM | > 10000 nM | Cc1ccc(C)c(NC(=O)c2cccc3c2Cc2ccccc2-3)c1 | 
18 | 3000 nM | > 10000 nM | > 10000 nM | Cc1ccccc1NC(=O)c1cccc2c1C(O)c1ccccc1-2 (configuration not stated) | 
19 | 290 nM | 220 nM | 150 nM | O=C(Nc1ccccc1-n1cccn1)c1cccc2c1C(=O)c1cc([N+](=O)[O-])ccc1-2 | GI50 (HCT-116 [4]): 420 nM; inhibition [8]: Active; Ratio (SNU-398 [10]): <10; Ratio (T47D [11]): <10; inhibition [14]: 50%; Ratio (T47D [17]): <10; inhibition [18]: 50%; GI50 (SNU-398 [5]): 72 nM; GI50 (T47D [6]): 110 nM; Ratio (SNU-398 [19]): <10; Ratio (HCT-116 [22]): <10; Ratio (HCT-116 [23]): <10
20 | 470 nM | 290 nM | 150 nM | [N-]=[N+]=Nc1ccc2c(c1)C(=O)c1c(C(=O)Nc3ccccc3-n3cccn3)cccc1-2 | 

From ChEMBL document CHEMBL1159042, “Discovery of N-aryl-9-oxo-9H-fluorene-1-carboxamides as a new series of apoptosis inducers using a cell- and caspase-based high-throughput screening assay. 2. Structure-activity relationships of the 9-oxo-9H-fluorene ring” (Bioorg Med Chem Lett, 2010)
